Tested on: 636577-100-R-J1-PDC complex spheroid viability
Assay: Anticancer human tumor 636577-100-R-J1-PDC patient-derived endometrial adenocarcinoma cell line growth inhibition [GQUAD]
Details: for IC50: curve of first compound; for viability, T/C: stronger effect = lower value
Procedure, shortened: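 Multi-cell-type spheroids of tumor cells with HUVEC and mesenchymal stem cells, treated with drug combinations. Concentrations descend in half-log steps from near clinical Cmax, or from 10 microM where Cmax is unknown; viability read-out.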

[1] = second compound 0.0316 µM, first compound 0.0316 µM
[2] = second compound 0.0316 µM, first compound 0.1 µM
[3] = second compound 0.0316 µM, first compound 0.316 µM
[4] = second compound 0.0316 µM, first compound 1 µM
[5] = second compound 0.0316 µM, first compound 3.16 µM
[6] = second compound 0.0316 µM, first compound 10 µM
[7] = second compound 0.1 µM, first compound 0.0316 µM
[8] = second compound 0.1 µM, first compound 0.1 µM
[9] = second compound 0.1 µM, first compound 0.316 µM
[10] = second compound 0.1 µM, first compound 1 µM
[11] = second compound 0.1 µM, first compound 3.16 µM
[12] = second compound 0.1 µM, first compound 10 µM
[13] = second compound 0.316 µM, first compound 0.0316 µM
[14] = second compound 0.316 µM, first compound 0.1 µM
[15] = second compound 0.316 µM, first compound 0.316 µM
[16] = second compound 0.316 µM, first compound 1 µM
[17] = second compound 0.316 µM, first compound 3.16 µM
[18] = second compound 0.316 µM, first compound 10 µM
[19] = second compound 1 µM, first compound 0.0316 µM
[20] = second compound 1 µM, first compound 0.1 µM
[21] = second compound 1 µM, first compound 0.316 µM
[22] = second compound 1 µM, first compound 1 µM
[23] = second compound 1 µM, first compound 3.16 µM
[24] = second compound 1 µM, first compound 10 µM
[25] = second compound 3.16 µM, first compound 0.0316 µM
[26] = second compound 3.16 µM, first compound 0.1 µM
[27] = second compound 3.16 µM, first compound 0.316 µM
[28] = second compound 3.16 µM, first compound 1 µM
[29] = second compound 3.16 µM, first compound 3.16 µM
[30] = second compound 3.16 µM, first compound 10 µM
[31] = second compound 10 µM, first compound 0.0316 µM
[32] = second compound 10 µM, first compound 0.1 µM
[33] = second compound 10 µM, first compound 0.316 µM
[34] = second compound 10 µM, first compound 1 µM
[35] = second compound 10 µM, first compound 3.16 µM
[36] = second compound 10 µM, first compound 10 µM
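Note: viability read after seven days of drug exposure.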
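Throughout, for viability, T/C: luminescence signal used as a proxy for viable cells; 100% = DMSO vehicle control wells.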

C=CC(=O)N1CCN(c2nc(=O)n(-c3c(C)ccnc3C(C)C)c3nc(-c4c(O)cccc4F)c(F)cc23)C(C)C1 (stereo unspecified) + Cc1cnc(CNC(=O)c2c(=O)c3ccc(N4CCCN(C)CC4)nc3n3c2sc2ccccc23)cn1
IC50 (second compound 0.0316 µM): < 31.6 nM | IC50 (second compound 0.1 µM): < 31.6 nM | IC50 (second compound 0.316 µM): < 31.6 nM | IC50 (second compound 1 µM): < 31.6 nM | IC50 (second compound 3.16 µM): < 31.6 nM | IC50 (second compound 10 µM): < 31.6 nM | viability, T/C [1]: 41.6% | viability, T/C [2]: 45.5% | viability, T/C [3]: 43.1% | viability, T/C [4]: 45.7% | viability, T/C [5]: 51% | viability, T/C [6]: 43% | viability, T/C [7]: 28.8% | viability, T/C [8]: 30.6% | viability, T/C [9]: 31.7% | viability, T/C [10]: 33.1% | viability, T/C [11]: 35.1% | viability, T/C [12]: 28.1% | viability, T/C [13]: 24.7% | viability, T/C [14]: 25.1% | viability, T/C [15]: 25.2% | viability, T/C [16]: 29.9% | viability, T/C [17]: 31.1% | viability, T/C [18]: 28% | viability, T/C [19]: 24.6% | viability, T/C [20]: 22.8% | viability, T/C [21]: 24.1% | viability, T/C [22]: 25.4% | viability, T/C [23]: 21.7% | viability, T/C [24]: 25.7% | viability, T/C [25]: 24% | viability, T/C [26]: 21.5% | viability, T/C [27]: 25.9% | viability, T/C [28]: 27.9% | viability, T/C [29]: 29.5% | viability, T/C [30]: 26.8% | viability, T/C [31]: 21.5% | viability, T/C [32]: 22.9% | viability, T/C [33]: 23.9% | viability, T/C [34]: 22.1% | viability, T/C [35]: 26.7% | viability, T/C [36]: 25.2%

CC1COCCN1c1cc(C2(O)CC3CCC(C2)O3)c2cnn(-c3ccn[nH]3)c2n1 (stereo unspecified) + Cc1cnc(CNC(=O)c2c(=O)c3ccc(N4CCCN(C)CC4)nc3n3c2sc2ccccc23)cn1
IC50 (second compound 0.0316 µM): < 31.6 nM | IC50 (second compound 0.1 µM): < 31.6 nM | IC50 (second compound 0.316 µM): < 31.6 nM | IC50 (second compound 1 µM): < 31.6 nM | IC50 (second compound 3.16 µM): < 31.6 nM | IC50 (second compound 10 µM): < 31.6 nM | viability, T/C [1]: 28.1% | viability, T/C [2]: 18.8% | viability, T/C [3]: 14.3% | viability, T/C [4]: 6.98% | viability, T/C [5]: 2.58% | viability, T/C [6]: 1.35% | viability, T/C [7]: 21% | viability, T/C [8]: 17.8% | viability, T/C [9]: 15.2% | viability, T/C [10]: 6.8% | viability, T/C [11]: 3.54% | viability, T/C [12]: 1.24% | viability, T/C [13]: 17.7% | viability, T/C [14]: 16.3% | viability, T/C [15]: 13.8% | viability, T/C [16]: 7.53% | viability, T/C [17]: 3.12% | viability, T/C [18]: 1.5% | viability, T/C [19]: 15% | viability, T/C [20]: 14.2% | viability, T/C [21]: 11.4% | viability, T/C [22]: 6.81% | viability, T/C [23]: 3.62% | viability, T/C [24]: 1.25% | viability, T/C [25]: 16.1% | viability, T/C [26]: 16.7% | viability, T/C [27]: 13.5% | viability, T/C [28]: 8.88% | viability, T/C [29]: 3.75% | viability, T/C [30]: 1.52% | viability, T/C [31]: 15.6% | viability, T/C [32]: 15.8% | viability, T/C [33]: 14% | viability, T/C [34]: 6.65% | viability, T/C [35]: 2.67% | viability, T/C [36]: 0.14%

CC1COCCN1c1cc(C2(S(C)(=N)=O)CC2)nc(-c2ccnc3[nH]ccc23)n1 (stereo unspecified) + Cc1cnc(CNC(=O)c2c(=O)c3ccc(N4CCCN(C)CC4)nc3n3c2sc2ccccc23)cn1
IC50 (second compound 0.0316 µM): 239 nM | IC50 (second compound 0.1 µM): < 31.6 nM | IC50 (second compound 0.316 µM): < 31.6 nM | IC50 (second compound 1 µM): < 31.6 nM | IC50 (second compound 3.16 µM): < 31.6 nM | IC50 (second compound 10 µM): < 31.6 nM | viability, T/C [1]: 56.2% | viability, T/C [2]: 50% | viability, T/C [3]: 54.1% | viability, T/C [4]: 30.5% | viability, T/C [5]: 45.3% | viability, T/C [6]: 12.3% | viability, T/C [7]: 30.8% | viability, T/C [8]: 29.6% | viability, T/C [9]: 33.5% | viability, T/C [10]: 21.7% | viability, T/C [11]: 27.5% | viability, T/C [12]: 12.2% | viability, T/C [13]: 23.4% | viability, T/C [14]: 24.4% | viability, T/C [15]: 25.2% | viability, T/C [16]: 22% | viability, T/C [17]: 24.2% | viability, T/C [18]: 14.5% | viability, T/C [19]: 21.1% | viability, T/C [20]: 22.7% | viability, T/C [21]: 21.8% | viability, T/C [22]: 18.3% | viability, T/C [23]: 24.8% | viability, T/C [24]: 9.7% | viability, T/C [25]: 18.5% | viability, T/C [26]: 18.5% | viability, T/C [27]: 21.2% | viability, T/C [28]: 19.4% | viability, T/C [29]: 21.5% | viability, T/C [30]: 14.3% | viability, T/C [31]: 16.9% | viability, T/C [32]: 22.2% | viability, T/C [33]: 23.4% | viability, T/C [34]: 22.7% | viability, T/C [35]: 23% | viability, T/C [36]: 13.2%

Reference: PubChem BioAssay AID2060504 (Molecular Pharmacology Branch, DTP, NCI, 2025)
